Assay results reported in patent publication US10954287B2, “Ras binding peptides and methods of use” (Ra Pharmaceuticals, Inc., priority 2016, dated 2021).

Experiments:
[1] = Compound stability in rat plasma; type: in vitro ADME; details: serum (method text and assay name say plasma), 37° C., pH 7.4
Procedure: Compounds were assayed for stability in mouse and rat plasma under the following conditions. Plasma was adjusted to pH 7.4. DMSO stocks at 10 mM concentration were prepared for the test compounds. Aliquots of the DMSO solutions were dosed into 1 mL of plasma, which had been pre-warmed to 37° C., at a final test compound concentration of 10 μM. The vials were kept in a benchtop Thermomixer® (Eppendorf, Hauppauge, N.Y.) for the duration of the experiment. Aliquots (100 μL) were taken at each timepoint and added to a 96-well plate that had been pre-filled with 300 μL of an acetonitrile solution containing mixture of the internal standards (metoprolol, propranalol and warfarin each at 500 ng/mL). Samples were stored at 4° C. until the end of the experiment. After the final timepoint was sampled, the plate was mixed and then centrifuged at 3,000 rpm for 10 minutes. Aliquots of the supernatant were removed and analyzed by LC-HRAMS.

[2] = target: T1, SOS^cat catalyzed nucleotide exchange of H-Ras-GDP (Homo sapiens, UniProt P01112, G12V); test: SOS-mediated nucleotide exchange (MANT-GMPPNP fluorescence); type: biochemical; details: 25 μM of R4000, 1 μM H-Ras-GDP, 2 μM SOS^cat
T1 construct: made in house; host or cells: E. coli BL21 (DE3)
Procedure: A sequence encoding the Ras exchanger motif and Cdc25 domains of human guanine nucleotide exchange factor SOS1 (amino acids 564-1049, designated as SOS^cat hereafter) was synthesized at GeneArt (Life Technologies, Carlsbad, Calif.) and subcloned into the pET28a expression vector (Novagen, Darmstadt, Germany) for expression in E. coli. The identity of the expression construct was confirmed by DNA sequencing. The plasmid encoding SOS^cat was transformed into BL21 (DE3). Cells were grown at 37° C. to an absorbance of 0.5 (OD600) in LB media containing 25 μg/mL of kanamycin and then transferred to 20° C. prior to induction with 0.1 mM IPTG. Cells were harvested 15 hours after induction and the pellet was lysed with B-PER Bacteria Extraction Reagent (Pierce/Thermo Scientific, Rockford, Ill.) containing EDTA-free protease inhibitors. […]
The SOS^cat protein was then dialysed into a buffer containing 25 mM Tris-HCl, pH 7.5, 150 mM NaCl, 5 mM MgCl2, and 1 mM DTT and stored at −80° C. […] Changes in fluorescence were measured by a fluorescence spectrometer (SpectraMax M3; Molecular Devices) in a black 96 half-area well plate (Corning 3686). Fluorescence was excited at λ=370 nm and emission was monitored at λ=450 nm every 20 s for over 30 minutes at 22° C. The nucleotide exchange rates were expressed as Vmax (milli-units per minute).

H-Ras = target: T2, H-Ras (Homo sapiens, UniProt P01112, G12V); test: Differential scanning fluorimetry (DSF); type: binding; details: Ras 5 μM, peptide 20 μM, FIG. 8A
T2 construct: made in house; host or cells: E. coli BL21 (DE3)
Procedure: Differential scanning fluorimetry (DSF) is based on denaturation of the protein in the absence or presence of a ligand, exposing hydrophobic residues that can be detected with high sensitivity with a fluorescent dye. […] DSF was performed on a CFX 96-well plate, real-time PCR instrument (Bio-Rad, Hercules, Calif.) according to Nettleship et al. [Nettleship, J. E., Brown, J., Groves, M. R., and Geerlof, A. (2008) Methods for protein characterization by mass spectrometry, thermal shift (ThermoFluor) assay, and multiangle or static light scattering. Methods Mol. Biol. 426: 299-318), the contents of which are incorporated herein by reference in their entirety]. SYPRO orange was purchased from Life Technologies (Carlsbad, Calif.). After incubation of Ras (5 μM) and peptide (20 μM) at room temperature for 15 minutes in 20 mM Tris-HCl (pH 8), 150 mM NaCl, 1 mM MgCl2, 2 mM DTT, and 0.2% dimethyl sulfoxide, SYPRO orange was added to the final concentration of 10× (original stock at 5000×). The mixture was subsequently heated in Bio-Rad CFX 96 PCR instrument from 25 to 95° C. in increments of 0.3° C./10 s. Fluorescence intensity was measured using excitation and emission wavelengths of 483 and 610 nm, respectively. Changes in protein thermal stability (ATm) upon peptide binding were analyzed by using Bio-Rad CFX Manager Software provided by the manufacturer.

half-life at 10 μM [1]: 2.1 h
effect on the rate of SOS catalyzed nucleotide exchange [2]: does not effect the rate of exchange
Δ Tm (H-Ras): +11 °C
Structure (SMILES): CCC[C@H](NC(C)=O)C(=O)N[C@H]1CSCc2cccc(c2)CSC[C@@H](C(N)=O)NC(=O)CN(C)C(=O)[C@H](Cc2ccc(F)cc2)N(C)C(=O)[C@H](Cc2ccc(O)cc2)NC(=O)[C@H](Cc2c[nH]c3ncccc23)NC(=O)[C@H](c2ccccc2)NC(=O)[C@H](C)N(C)C(=O)[C@H](Cc2cnc[nH]2)NC(=O)[C@H](CCCCN)NC(=O)[C@H](C(C)(C)C)NC(=O)[C@H](Cc2ccc(O)cc2)NC1=O (relative stereo) [Compound R4000, ACE-NVA-CYS*-TYR-TBG-LYS-HIS-NMA-PHG-7AW-TYR-MFF-SAR-CYS*-NH2]
